Data from patent US6436948B1, “Method for the treatment of psoriasis and genital warts” (priority 1995, dated 2002).

Legend:
SP-295 = conditions: CNS Cancer, PG +50, 48 hours
Source text: (§1) GI50, TGI and LC50 are values representing the concentrations at which the PG (percent of growth inhibition), defined below, is +50, 0, and −50, respectively.
(§2) If (Mean ODtest−Mean ODtzero)≧0. then PG=100×(Mean ODtest−Mean ODtzero)/(Mean ODctrl−Mean ODtzero)
(§3) If (Mean ODtest−Mean ODtzero)<0. then PG=100×(Mean ODtest−Mean ODtzero)/(Mean ODtzero)
(§4) Mean ODtzero=The average of optical density measurements of SRB-derived color just before exposure of cells to the test compound.
(§5) Mean ODtestThe average of optical density measurements of SRB-derived color after 48 hours exposure of cells to the test compound.
(§6) Mean ODctrl=The average of optical density measurements of SRB-derived color after 48 hours with no exposure of cells to the test compound.
(§7) If these response parameters could not be obtained by interpolation, the value given for each response parameter is the highest concentration tested and is preceded by a “>” sign.

SK-MEL-28 = assay: NCI cancer screening program, SRB: SK-MEL-28; type: cell-based; conditions: Melanoma, PG +50, 48 hours
BT-549 = assay: NCI cancer screening program, SRB: BT-549; type: cell-based; conditions: Breast Cancer, PG +50, 48 hours
UO-31 = assay: NCI cancer screening program, SRB: UO-31; type: cell-based; conditions: Renal Cancer, PG +50, 48 hours
DU-145 = assay: NCI cancer screening program, SRB: DU-145; type: cell-based; conditions: Prostate Cancer, PG +50, 48 hours
T-47D = assay: NCI cancer screening program, SRB: T-47D; type: cell-based; conditions: Breast Cancer, PG +50, 48 hours
MDA-MB-435 = assay: NCI cancer screening program, SRB: MDA-MB-435; type: cell-based; conditions: Breast Cancer
SN12C = assay: NCI cancer screening program, SRB: SN12C; type: cell-based; conditions: Renal Cancer, PG +50, 48 hours
785-4 = conditions: Renal Cancer, PG +50, 48 hours
Source text: as §1, §2, §3, §4, §5, §6, §7

NCI-H522 = assay: NCI cancer screening program, SRB: NCI-H522; type: cell-based; conditions: Non-Small Cell Lung Cancer, PG +50, 48 hours
SR = assay: NCI cancer screening program, SRB: SR; type: cell-based; conditions: Leukemia, PG +50, 48 hours
HCT-116 = assay: NCI cancer screening program, SRB: HCT-116; type: cell-based; conditions: Colon Cancer, PG +50, 48 hours
HT29 = assay: NCI cancer screening program, SRB: HT29; type: cell-based; conditions: Colon Cancer, PG +50, 48 hours
BSOLT-4 = assay: NCI cancer screening program, SRB: BSOLT-4; type: cell-based; conditions: Leukemia, PG +50, 48 hours
HCT-15 = assay: NCI cancer screening program, SRB: HCT-15; type: cell-based; conditions: Colon Cancer, PG +50, 48 hours
tumor cell lines tested = assay: In vitro cytotoxicity, statement on all tumor cell lines tested; type: cell-based; conditions: all of the tumor cell lines tested
RPMI-2.26 = assay: NCI cancer screening program, SRB: RPMI-2.26; type: cell-based; conditions: Leukemia, PG +50, 48 hours
[1] = target: human deoxycytidine kinase (Homo sapiens, UniProt P27707); assay: In vitro enzymatic studies of phosphorylation; type: biochemical
Chain of human deoxycytidine kinase (P27707 whole entry): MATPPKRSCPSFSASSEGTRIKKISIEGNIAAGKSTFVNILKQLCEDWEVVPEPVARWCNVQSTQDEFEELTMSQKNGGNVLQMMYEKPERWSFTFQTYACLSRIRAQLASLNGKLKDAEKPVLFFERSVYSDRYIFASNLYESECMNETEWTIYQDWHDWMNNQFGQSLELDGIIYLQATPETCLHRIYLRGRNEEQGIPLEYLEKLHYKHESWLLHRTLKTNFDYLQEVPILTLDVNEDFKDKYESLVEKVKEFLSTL

ACHN = assay: NCI cancer screening program, SRB: ACHN; type: cell-based; conditions: Renal Cancer, PG +50, 48 hours
CCRF-CEM = assay: NCI cancer screening program, SRB: CCRF-CEM; type: cell-based; conditions: Leukemia, log10 concentration at PG +50, 48 hours
K2112 = conditions: Colon Cancer
Source text: as §1, §2, §3, §4, §5, §6, §7

NCr nude mice = type: in vivo
Protocol: Drugs were given at the indicated doses on days 0 through 4 and tumor sizes were measured every several days. The tumor growth curves were generated as described in Bell, et al., Cancer(phila.) 36:2437-2440 (1975), and are illustrated in FIGS. 5(a) and 5(b).
Toxicity was evaluated by changes in body weight.

MDA-MB-231/ATCC = conditions: Breast Cancer, PG +50, 48 hours
Source text: as §1, §2, §3, §4, §5, §6, §7

MCF7 = assay: NCI cancer screening program, SRB: MCF7; type: cell-based; conditions: Breast Cancer, PG +50, 48 hours
MALME-3M = assay: NCI cancer screening program, SRB: MALME-3M; type: cell-based; conditions: Melanoma, PG +50, 48 hours
[2] = tested on: KB nasopharyngeal carcinoma cell line; assay: In vitro cytotoxicity, methylene blue assay / cell count: KB; type: cell-based; conditions: three generations, mean ± standard deviation of five experiments, read-out: ID50 (the source's name)
[3] = tested on: DU-145 prostate carcinoma line; assay: In vitro cytotoxicity, methylene blue assay / cell count: DU-145; type: cell-based; conditions: Homo sapiens, read-out: ID50 (the source's name)
UACC-257 = assay: NCI cancer screening program, SRB: UACC-257; type: cell-based; conditions: Melanoma, PG +50, 48 hours

With `Nc1ccn([C@@H]2CO[C@H](CO)O2)c(=O)n1` [(−)-OddC, (−)-(2S,4S)-1-(2-hydroxymethyl-1,3-dioxolan-4-yl)cytosine] the Log10GI50 (SP-295) was −6.24, the Log10GI50 (SK-MEL-28) was −4.31 and the LOG10GI50 (BT-549) was −4.59. For the same molecule, the LOG10GI50 (UO-31) was −5.60, the LOG10GI50 (DU-145) was −6.97 and the LOG10GI50 (T-47D) was >−4.00. The LOG10TGI (MDA-MB-435; PG 0, 48 hours) was >−4.00, the LOG10GI50 (MDA-MB-435; PG +50, 48 hours) was −4.62 and the LOG10GI50 (SN12C) was −6.27. For the same molecule, the LOG10GI50 (785-4) was −5.36, the Log10GI50 (NCI-H522) was −6.06 and the Log10GI50 (SR) was −5.95. For the same molecule, the Log10GI50 (HCT-116) was −5.23, the Log10GI50 (HT29) was >−4.00 and the Log10GI50 (BSOLT-4) was −6.66. The Log10GI50 (HCT-15) was −5.39, the Cytotoxicity in words (tumor cell lines tested) was “more cytotoxic than AraC” and the Log10GI50 (RPMI-2.26) was −4.03. The “Phosphorylation by human deoxycytidine kinase” value [1] was “can be phosphorylated”, the LOG10GI50 (ACHN) was −6.46 and the Log10GI50 (CCRF-CEM) was −6.64. The Log10TGI (K2112; PG 0, 48 hours) was >−4.00, the Log10GI50 (K2112; PG +50, 48 hours) was >−4.00 and the “Toxicity as indicated by weight loss of the animals” value (NCr nude mice; doses given, 25 mg/kg twice a day days 0 through 4) was “equally toxic”. The Maximum tolerated dosage (NCr nude mice; twice a day for five continuous days of treatment, preliminary toxicity experiments) was 25 mg/kg, the LOG10GI50 (MDA-MB-231/ATCC) was >−4.00 and the LOG10GI50 (MCF7) was −5.95. It also gave a Log10GI50 (MALME-3M) of −4.51, an IC50 [2] of 48 ± 21 nM and an IC50 [3] of 24 ± 20 nM. The LOG10GI50 (UACC-257) was >−4.00.
